Measurements as given in ChEMBL document CHEMBL4270485, “Determination of Gymnemic Acid I as a Protein Biosynthesis Inhibitor Using Chemical Proteomics” (J Nat Prod, 2017).
Activity calls are given as the source filed them. The rule behind the calls is not given here.

Experiments:
[1] = target: Elongation factor 1-delta (Homo sapiens) (UniProt P29692); assay: Binding affinity to elongation factor 1-delta in human Hela cells lysates assessed as protein enrichment by measuring normalized heavy/light ratio at by nano-LC-ESIMS/MS analysis; assay type: cell-free
Chain of Elongation factor 1-delta (Homo sapiens) (P29692 whole entry): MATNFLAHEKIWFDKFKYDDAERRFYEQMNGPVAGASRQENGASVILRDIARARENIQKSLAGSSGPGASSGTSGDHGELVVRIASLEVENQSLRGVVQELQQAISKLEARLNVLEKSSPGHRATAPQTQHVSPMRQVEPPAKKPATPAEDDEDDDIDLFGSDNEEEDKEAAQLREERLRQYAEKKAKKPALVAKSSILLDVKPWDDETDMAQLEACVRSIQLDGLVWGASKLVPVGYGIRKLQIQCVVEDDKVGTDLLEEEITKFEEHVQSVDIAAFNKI

[2] = target: T1, 80S Ribosome (Homo sapiens) (UniProt P08865+P42677+P62753+P15880+P23396+P61247+P62701+P22090+P46782+P62081+P62241+P46781+P46783+P62280+P25398+P62277+P62263+P62841+P62244+P62249+P08708+P62269+P39019+P60866+P63220+P62266+P62847+P62851+P62854+P62979+P62857+P62273+P62861+P39023+P36578+P46777+Q02878+P18124+P62424+P62917+P32969+P27635+P62906+P62913+P30050+P26373+P40429+P50914+P61313+P18621+Q07020+Q02543+P84098+P46778+P35268+P62829+P62750+P83731+P61254+P61353+P46776+P46779+P47914+P62888+P62899+P62910+P49207+P42766+P18077+Q9Y3U8+P83881+P61927+P61513+P63173+P62891+P62945+P05388+P05386); assay: Binding affinity to 60S acidic ribosomal protein P0 in human Hela cells lysates assessed as protein enrichment by measuring normalized heavy/light ratio at by nano-LC-ESIMS/MS analysis; assay type: cell-free
Oryctolagus cuniculus = species on record: Oryctolagus cuniculus; assay: Inhibition of protein synthesis in rabbit reticulocytes pre-incubated for 30 mins before labeled-lysine-t-RNA and amino acid mixture addition and measured after 1 hr by luciferase reporter gene assay; assay type: functional, cell-based
[3] = target: Elongation factor 1-beta (Homo sapiens) (UniProt P24534); assay: Binding affinity to elongation factor 1-beta in human Hela cells lysates assessed as protein enrichment by measuring normalized heavy/light ratio at by nano-LC-ESIMS/MS analysis; assay type: cell-free
Chain of Elongation factor 1-beta (Homo sapiens) (P24534 whole entry): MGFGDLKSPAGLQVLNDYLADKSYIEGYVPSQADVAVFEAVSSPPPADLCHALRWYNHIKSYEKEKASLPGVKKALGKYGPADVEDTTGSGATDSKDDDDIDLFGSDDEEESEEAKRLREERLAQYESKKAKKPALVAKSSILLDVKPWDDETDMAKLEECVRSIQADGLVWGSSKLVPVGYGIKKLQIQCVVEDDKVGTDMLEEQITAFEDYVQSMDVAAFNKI

[4] = target: T1, 80S Ribosome (Homo sapiens); assay: Binding affinity to ribosomal protein S10 in human Hela cells lysates assessed as protein enrichment by Western blotting analysis; assay type: cell-free
Trypsin (Homo sapiens) = Trypsin (Homo sapiens) (UniProt P07477+P07478+P35030); assay: Binding affinity to trypsin in human Hela cells lysates assessed as protein enrichment by measuring normalized heavy/light ratio at by nano-LC-ESIMS/MS analysis; assay type: cell-free
[5] = target: T1, 80S Ribosome (Homo sapiens); assay: Binding affinity to ribosomal protein S3 in human Hela cells lysates assessed as protein enrichment by Western blotting analysis; assay type: cell-free
[6] = Binding affinity to brain acid soluble protein 1 in human Hela cells lysates assessed as protein enrichment by measuring normalized heavy/light ratio at by nano-LC-ESIMS/MS analysis
[7] = target: T1, 80S Ribosome (Homo sapiens); assay: Binding affinity to 40S ribosomal protein S3 in human Hela cells lysates assessed as protein enrichment by measuring normalized heavy/light ratio at by nano-LC-ESIMS/MS analysis; assay type: cell-free
[8] = target: Tubulin alpha-1B chain (Homo sapiens) (UniProt P68363); assay: Binding affinity to tubulin alpha-1B chain in human Hela cells lysates assessed as protein enrichment by measuring normalized heavy/light ratio at by nano-LC-ESIMS/MS analysis; assay type: cell-free
Chain of Tubulin alpha-1B chain (Homo sapiens) (P68363 whole entry, looked up): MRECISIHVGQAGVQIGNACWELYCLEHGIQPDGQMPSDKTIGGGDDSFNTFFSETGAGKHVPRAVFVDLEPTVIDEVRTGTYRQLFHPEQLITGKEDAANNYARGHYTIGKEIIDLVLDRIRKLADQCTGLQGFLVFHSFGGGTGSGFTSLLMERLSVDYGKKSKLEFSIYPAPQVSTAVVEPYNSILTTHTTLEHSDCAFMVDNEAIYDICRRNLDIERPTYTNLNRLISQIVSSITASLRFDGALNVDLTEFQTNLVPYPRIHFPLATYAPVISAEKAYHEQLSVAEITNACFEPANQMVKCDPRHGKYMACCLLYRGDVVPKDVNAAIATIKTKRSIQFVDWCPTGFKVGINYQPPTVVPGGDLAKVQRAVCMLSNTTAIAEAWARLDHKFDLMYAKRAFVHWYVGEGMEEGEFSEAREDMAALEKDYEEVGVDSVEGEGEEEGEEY

[9] = target: T1, 80S Ribosome (Homo sapiens); assay: Binding affinity to 60S ribosomal protein L15 in human Hela cells lysates assessed as protein enrichment by measuring normalized heavy/light ratio at by nano-LC-ESIMS/MS analysis; assay type: cell-free
[10] = target: Heat shock protein HSP 90-beta (Homo sapiens) (UniProt P08238); assay: Binding affinity to heat shock protein 90-beta in human Hela cells lysates assessed as protein enrichment by measuring normalized heavy/light ratio at by nano-LC-ESIMS/MS analysis; assay type: cell-free
Chain of Heat shock protein HSP 90-beta (Homo sapiens) (P08238 whole entry): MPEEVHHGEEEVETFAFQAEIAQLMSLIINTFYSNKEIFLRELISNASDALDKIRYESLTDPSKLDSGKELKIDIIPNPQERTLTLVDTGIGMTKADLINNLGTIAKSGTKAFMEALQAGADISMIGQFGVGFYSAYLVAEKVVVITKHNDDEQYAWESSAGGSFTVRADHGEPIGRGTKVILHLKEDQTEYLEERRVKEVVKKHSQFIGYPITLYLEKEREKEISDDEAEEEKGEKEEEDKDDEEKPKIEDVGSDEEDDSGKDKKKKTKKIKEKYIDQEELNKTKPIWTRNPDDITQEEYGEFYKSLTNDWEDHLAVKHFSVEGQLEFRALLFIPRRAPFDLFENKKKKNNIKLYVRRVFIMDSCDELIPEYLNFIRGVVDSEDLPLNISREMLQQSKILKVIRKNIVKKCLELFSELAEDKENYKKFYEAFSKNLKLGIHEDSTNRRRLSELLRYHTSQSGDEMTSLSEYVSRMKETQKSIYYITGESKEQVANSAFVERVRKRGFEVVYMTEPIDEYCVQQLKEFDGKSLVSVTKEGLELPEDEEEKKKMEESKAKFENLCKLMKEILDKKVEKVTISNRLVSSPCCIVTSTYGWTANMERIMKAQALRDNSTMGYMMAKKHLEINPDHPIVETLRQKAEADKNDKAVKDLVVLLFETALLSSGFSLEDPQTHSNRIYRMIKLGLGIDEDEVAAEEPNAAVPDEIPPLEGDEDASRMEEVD

[11] = target: Endoplasmic reticulum chaperone BiP (Homo sapiens) (UniProt P11021); assay: Binding affinity to 78 kDa glucose-regulated protein in human Hela cells lysates assessed as protein enrichment by measuring normalized heavy/light ratio at by nano-LC-ESIMS/MS analysis; assay type: cell-free
Chain of Endoplasmic reticulum chaperone BiP (Homo sapiens) (P11021 whole entry): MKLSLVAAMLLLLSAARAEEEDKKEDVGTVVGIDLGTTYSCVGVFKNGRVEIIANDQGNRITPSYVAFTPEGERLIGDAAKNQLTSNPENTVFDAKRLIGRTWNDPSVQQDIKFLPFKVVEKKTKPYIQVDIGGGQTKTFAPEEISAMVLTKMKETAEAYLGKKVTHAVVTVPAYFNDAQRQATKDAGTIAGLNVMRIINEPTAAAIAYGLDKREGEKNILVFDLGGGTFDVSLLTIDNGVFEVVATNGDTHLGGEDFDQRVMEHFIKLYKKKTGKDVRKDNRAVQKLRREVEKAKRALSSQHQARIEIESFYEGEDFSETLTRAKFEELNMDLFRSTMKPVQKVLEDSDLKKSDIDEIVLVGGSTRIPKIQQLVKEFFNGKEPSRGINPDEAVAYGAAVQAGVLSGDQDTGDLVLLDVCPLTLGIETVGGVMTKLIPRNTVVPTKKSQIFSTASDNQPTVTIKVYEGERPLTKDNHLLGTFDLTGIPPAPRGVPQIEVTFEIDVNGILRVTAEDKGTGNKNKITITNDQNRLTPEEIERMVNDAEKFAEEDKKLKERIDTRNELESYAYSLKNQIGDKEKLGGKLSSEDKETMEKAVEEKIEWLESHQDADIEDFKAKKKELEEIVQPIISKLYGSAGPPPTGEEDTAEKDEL

[12] = target: Heat shock cognate 71 kDa protein (Homo sapiens) (UniProt P11142); assay: Binding affinity to heat shock cognate 71 kDa protein in human Hela cells lysates assessed as protein enrichment by measuring normalized heavy/light ratio at by nano-LC-ESIMS/MS analysis; assay type: cell-free
Chain of Heat shock cognate 71 kDa protein (Homo sapiens) (P11142 2-646 limits assumed): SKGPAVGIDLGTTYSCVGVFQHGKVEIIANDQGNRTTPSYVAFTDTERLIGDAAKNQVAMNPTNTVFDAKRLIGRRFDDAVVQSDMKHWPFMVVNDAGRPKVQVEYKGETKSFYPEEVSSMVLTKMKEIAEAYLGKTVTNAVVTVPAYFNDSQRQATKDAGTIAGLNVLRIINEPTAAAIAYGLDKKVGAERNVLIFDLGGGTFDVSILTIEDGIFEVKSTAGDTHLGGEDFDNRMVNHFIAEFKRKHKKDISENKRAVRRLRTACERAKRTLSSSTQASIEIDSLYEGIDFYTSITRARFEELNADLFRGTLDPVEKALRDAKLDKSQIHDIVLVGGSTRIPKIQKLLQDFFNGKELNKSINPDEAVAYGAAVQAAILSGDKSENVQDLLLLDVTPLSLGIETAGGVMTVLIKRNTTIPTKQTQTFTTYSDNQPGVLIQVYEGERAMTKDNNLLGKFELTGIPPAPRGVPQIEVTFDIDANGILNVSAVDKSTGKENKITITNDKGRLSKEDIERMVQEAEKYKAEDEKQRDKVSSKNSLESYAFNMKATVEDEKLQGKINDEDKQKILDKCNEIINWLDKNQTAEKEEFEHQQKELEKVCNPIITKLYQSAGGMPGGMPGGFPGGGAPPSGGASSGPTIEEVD

[13] = target: Elongation factor 1-alpha 1 (Homo sapiens) (UniProt P68104); assay: Binding affinity to elongation factor 1-alpha 1 in human Hela cells lysates assessed as protein enrichment by measuring normalized heavy/light ratio at by nano-LC-ESIMS/MS analysis; assay type: cell-free
Chain of Elongation factor 1-alpha 1 (Homo sapiens) (P68104 whole entry): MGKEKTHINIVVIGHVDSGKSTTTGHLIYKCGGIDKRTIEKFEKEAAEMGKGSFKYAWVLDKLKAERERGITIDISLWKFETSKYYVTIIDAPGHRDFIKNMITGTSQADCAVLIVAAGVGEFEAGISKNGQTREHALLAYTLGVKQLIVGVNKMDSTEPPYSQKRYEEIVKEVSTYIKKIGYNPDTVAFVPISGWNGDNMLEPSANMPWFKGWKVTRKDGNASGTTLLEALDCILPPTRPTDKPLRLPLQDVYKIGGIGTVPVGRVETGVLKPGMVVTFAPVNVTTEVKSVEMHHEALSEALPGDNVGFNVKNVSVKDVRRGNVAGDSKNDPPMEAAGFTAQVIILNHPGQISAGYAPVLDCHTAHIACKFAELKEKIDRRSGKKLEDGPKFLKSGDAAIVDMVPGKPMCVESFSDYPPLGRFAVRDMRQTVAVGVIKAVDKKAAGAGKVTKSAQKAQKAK

[14] = target: T1, 80S Ribosome (Homo sapiens); assay: Binding affinity to 40S ribosomal protein S17 in human Hela cells lysates assessed as protein enrichment by measuring normalized heavy/light ratio at by nano-LC-ESIMS/MS analysis; assay type: cell-free
[15] = target: T1, 80S Ribosome (Homo sapiens); assay: Binding affinity to 40S ribosomal protein S4 in human Hela cells lysates assessed as protein enrichment by measuring normalized heavy/light ratio at by nano-LC-ESIMS/MS analysis; assay type: cell-free
[16] = target: T1, 80S Ribosome (Homo sapiens); assay: Binding affinity to 40S ribosomal protein S24 in human Hela cells lysates assessed as protein enrichment by measuring normalized heavy/light ratio at by nano-LC-ESIMS/MS analysis; assay type: cell-free
[17] = target: Solute carrier family 25 member 3 (Homo sapiens) (UniProt Q00325); assay: Binding affinity to phosphate carrier protein in human Hela cells lysates assessed as protein enrichment by measuring normalized heavy/light ratio at by nano-LC-ESIMS/MS analysis; assay type: cell-free
Chain of Solute carrier family 25 member 3 (Homo sapiens) (Q00325 whole entry): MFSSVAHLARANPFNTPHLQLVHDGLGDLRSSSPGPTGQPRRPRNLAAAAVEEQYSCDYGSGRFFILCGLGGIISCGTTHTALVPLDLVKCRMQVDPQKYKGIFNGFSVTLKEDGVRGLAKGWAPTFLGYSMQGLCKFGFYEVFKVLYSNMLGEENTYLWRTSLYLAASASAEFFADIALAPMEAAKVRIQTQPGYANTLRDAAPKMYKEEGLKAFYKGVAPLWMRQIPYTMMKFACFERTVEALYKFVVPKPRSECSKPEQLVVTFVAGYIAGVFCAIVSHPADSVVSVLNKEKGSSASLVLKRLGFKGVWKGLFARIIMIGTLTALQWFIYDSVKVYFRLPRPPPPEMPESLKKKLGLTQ

[18] = target: T1, 80S Ribosome (Homo sapiens); assay: Binding affinity to 60S ribosomal protein L31 in human Hela cells lysates assessed as protein enrichment by measuring normalized heavy/light ratio at by nano-LC-ESIMS/MS analysis; assay type: cell-free

Ratio [1]: 0.622 | Ratio [2]: 0.245 | inhibition (Oryctolagus cuniculus): Dose-dependent effect | Ratio [3]: 0.525 | Activity [4]: Active | Ratio (Trypsin (Homo sapiens)): 1 | Activity [5]: Active | Ratio [6]: 0.744 | Ratio [7]: 0.269 | Ratio [8]: 0.523 | Ratio [9]: 0.818 | Ratio [10]: 0.737 | Ratio [11]: 0.527 | Ratio [12]: 0.615 | Ratio [13]: 0.629 | Ratio [14]: 0.069 | Ratio [15]: 0.16 | Ratio [16]: 0.173 | Ratio [17]: 0.57 | Ratio [18]: 0.439
SMILES: C/C=C(\C)C(=O)O[C@H]1[C@H](O)[C@]2(COC(C)=O)[C@@H](O)C[C@]3(C)C(=CC[C@@H]4[C@@]5(C)CC[C@H](O[C@@H]6O[C@H](C(=O)O)[C@@H](O)[C@H](O)[C@H]6O)[C@@](C)(CO)[C@@H]5CC[C@]43C)[C@@H]2CC1(C)C
